Results on 123 compounds are retold here after a melting point compilation (Tetko et al.).

Bounds are passed on as bounds.

As for `CN(C)S(=O)(=O)c1ccc(-c2csc(N)n2)cc1`, the melting point was 243 to 245 °C.

The compound `Nc1nc(-c2ccc3c(c2)COC3)cs1` displayed a melting point of 204 to 206 °C.

As to `Cc1nn(C)c2[nH]nc(N)c12`, the melting point lay in the range of 135 to 137 °C.

In the case of `COc1ccc(NS(=O)(=O)c2c[nH]c(C(=O)O)c2)cc1Cl`, the melting point lay within 207 to 209 °C.

As for `Nc1cc(-n2cnnn2)ccc1Cl`, the melting point fell in the range of 159 to 161 °C.

Regarding `O=Cc1cc(CCl)ccc1O`, the melting point is 87 to 89 °C.

In turn, `Oc1ccc2ccc(C(F)(F)F)nc2c1` displayed a melting point of 255 to 257 °C.

With `CCOCCOc1ccc(Br)cc1C=O`, the melting point fell in the range of 28 to 30 °C.

In the case of `CC1=NN(C)C(=O)C1C` (stereo not drawn), the melting point lay in the range of 132 to 134 °C.

In the case of `CCOc1cc(/C=C(\C(=O)O)c2ccccc2)ccc1O`, the melting point is 186 to 188 °C.

As for `Cn1cn[nH]c1=O`, the melting point was in the range of 134 to 136 °C.

`CC(=O)N(C)CCC(N)=S` gave a melting point of 109 to 111 °C.

`Nc1ccc(S(=O)(=O)Nc2ccccc2)cc1` had a melting point of 176 to 178 °C.

`CC(C)c1cccc(-c2ccc(C(=O)O)o2)c1` registered a melting point of 84 to 86 °C.

Compound `O=Cc1nc(-c2ccccc2)cs1` registered a melting point of 61 to 63 °C.

With `CS(=O)(=O)c1ccc(S(N)(=O)=O)cc1`, the melting point was 246 to 248 °C.

Turning to `CN(C(=O)c1cccc(N)c1)c1ccccc1`, the melting point fell in the range of 144 to 146 °C.

As to `NC(CCCN1CCCCC1)=NO`, the melting point is 89 to 91 °C.

In the case of `NC(NO)=C1C=CC=NC1=O`, the melting point was in the range of 176 to 178 °C.

On to `COc1ccc(-c2nnc(S)o2)cc1OC`, for which the melting point was in the range of 251 to 253 °C.

In the case of `Cc1oncc1C(=O)NC(C)C(=O)O` (stereo not drawn), the melting point lay within 159 to 161 °C.

As for `COc1ccc(C(=O)O)cc1C(C)C`, the melting point was 164 to 166 °C.

`Cc1ccc(Cl)c(NC(=O)C(C)Cl)c1Cl` (stereo not drawn) showed a melting point of 149 to 151 °C.

In turn, `Cc1cc(Cl)cc(N)c1I` yielded a melting point of 48 to 50 °C.

Compound `CC1(c2ccc(F)cc2)NC(=O)N(CC(=O)O)C1=O` (stereo not drawn) yielded a melting point of 167 to 169 °C.

As for `Nc1cccc(-c2nccn2CC(=O)O)c1`, the melting point was 249 to 251 °C.

The compound `CC(=O)c1c[nH]c2cc(Cl)ccc12` had a melting point of 229 to 231 °C.

`COc1cc(OC)cc(N2CC(C(=O)O)CC2=O)c1` (stereo not drawn) showed a melting point of 125 to 127 °C.

Take `CC(C)(C)C(N)=NO`: the melting point fell in the range of 93 to 95 °C.

`O=C(O)c1cccc(C(F)(F)C(F)(F)F)c1` showed a melting point of 94 to 96 °C.

Take `CC(C)C(NC(=O)c1ccncc1)C(=O)O` (stereo not drawn): the melting point fell in the range of 187 to 189 °C.

Turning to `COC(=O)c1ccc(-n2c(C)cc(C(=O)CCl)c2C)cc1`, the melting point is 157 to 159 °C.

In turn, `O=C(O)c1ccc(I)c(F)c1` registered a melting point of 233 to 235 °C.

In turn, `Nc1nc2c(OC(F)F)cccc2s1` registered a melting point of 144 to 146 °C.

On to `O=C(O)CCn1ncc(=O)c2ccccc21`, for which the melting point was 130 to 132 °C.

In turn, `COc1ccc(-n2c(S)nnc2-c2ccncc2)cc1` showed a melting point of 242 to 244 °C.

The compound `CC(SCc1nc2ccccc2c(=O)[nH]1)C(=O)O` (stereo not drawn) yielded a melting point of 204 to 206 °C.

Consider `Cc1oc(C(=O)O)cc1S(=O)(=O)Cl`, for which the melting point is 114 to 116 °C.

In turn, `CN(C)CCn1nnnc1S` had a melting point of 213 to 215 °C.

Turning to `CCOC(=O)CS(=O)(=O)c1ccc(Br)cc1`, the melting point was 45 to 47 °C.

Consider `NS(=O)(=O)N1CCN(Cc2ccccc2)CC1`, for which the melting point is 147 to 149 °C.

In the case of `O=C(O)CCc1ncc(-c2ccccc2Cl)o1`, the melting point fell in the range of 184 to 186 °C.

`Cn1c(CO)nnc1C1CCC1` gave a melting point of 133 to 135 °C.

For `NC(=O)C1COCCN1` (stereo not drawn), the melting point was in the range of 168 to 170 °C.

For the compound `O=C1CCCS(=O)(=O)c2ccccc21`, the melting point was in the range of 151 to 153 °C.

For the compound `Cc1cc(C)cc(C(=O)CC#N)c1`, the melting point fell in the range of 140 to 142 °C.

`CC(N)C(=O)NO` (stereo not drawn) yielded a melting point of 159 to 161 °C.

On to `CSc1ccc(C#N)c(Cl)c1`, for which the melting point was 117 to 119 °C.

`O=C(CC1CCCC1)N1CCNCC1` showed a melting point of 37 to 39 °C.

Compound `CCC(CC)c1nnc(N)s1` came in with a melting point of 158 to 160 °C.

For the compound `Cc1cc(Br)cc(C)c1NCc1ncc[nH]1`, the melting point was in the range of 142 to 144 °C.

`COC(=O)c1ccc(CBr)s1`: the melting point lay in the range of 36 to 38 °C.

Turning to `CC(NS(=O)(=O)c1cccc(C(=O)O)c1)c1ccccc1` (stereo not drawn), the melting point lay within 149 to 151 °C.

Turning to `CC(C)C[C@H](NC(=O)OC(C)(C)C)C(=O)O`, the melting point fell in the range of 87 to 89 °C.

In turn, `CCC1(C(C)C)NC(=O)NC1=O` (stereo not drawn) gave a melting point of 164 to 166 °C.

`O=C1Cc2cc(S(=O)(=O)Cl)c(Cl)cc2N1` gave a melting point of 185 to 187 °C.

Turning to `O=C(CC(F)(F)F)c1ccccc1`, the melting point is 37 to 39 °C.

As to `O=C(O)c1cc(N2CCOC2=O)ccc1F`, the melting point lay within 232 to 234 °C.

The compound `CC1CCC2(CC1)NC(=O)N(CC(=O)O)C2=O` (stereo not drawn) showed a melting point of 223 to 225 °C.

The compound `O=C(O)c1ccnc(Cl)c1[N+](=O)[O-]` showed a melting point of 222 to 224 °C.

On to `O=C(O)C1CCN(S(=O)(=O)c2cc(F)ccc2F)CC1`, for which the melting point is 149 to 151 °C.

For `COc1ccc(CC(=O)O)cc1S(=O)(=O)Cl`, the melting point was in the range of 166 to 168 °C.

For the compound `O=S(=O)(Cl)c1cc(Cl)cc2c1OCC2`, the melting point lay in the range of 105 to 107 °C.

`O=c1occc2cccnc12` yielded a melting point of 157 to 159 °C.

`O=C1CN(C(=O)CCl)CCN1`: the melting point lay in the range of 124 to 126 °C.

In the case of `O=C(O)CCn1cc(Br)ccc1=O`, the melting point was 172 to 174 °C.

Compound `COc1cc2c(cc1OC)S(=O)(=O)NC2=O` returned a melting point of 279 to 281 °C.

For `Nc1nnc(-c2ccc(Cl)cc2Cl)[nH]1`, the melting point is 228 to 230 °C.

The compound `Cn1c(C(=O)O)cc(Cl)c1Cl` registered a melting point of 178 to 180 °C.

The compound `NNC(=O)c1cnccn1` showed a melting point of 170 to 172 °C.

`O=C(NC=C(Cl)Cl)c1ccc(Br)cc1` had a melting point of 110 to 112 °C.

Consider `COc1ccccc1C(N)c1nccn1C` (stereo not drawn), for which the melting point lay in the range of 78 to 80 °C.

With `CC(=O)NNC(=O)CCl`, the melting point is 157 to 159 °C.

In turn, `CCCCCCOc1ccc(CO)cc1` showed a melting point of 32 to 34 °C.

Consider `N#Cc1c[nH]c2ccc(Br)cc2c1=O`, for which the melting point is 359 to 361 °C.

Consider `O=C(CC(=O)c1ccccc1)Nc1ccccc1`, for which the melting point was in the range of 107 to 109 °C.

As to `CC(=O)Nc1ncc(-c2ccc(O)cc2)s1`, the melting point fell in the range of 218 to 220 °C.

As for `C=CCSc1nc2ccccc2[nH]1`, the melting point was 139 to 141 °C.

For `N#CC1CC(=O)N(c2ccccc2)C1` (stereo not drawn), the melting point is 138 to 140 °C.

The compound `CC(Cn1ccnc1)NC(=O)C1(N)CCCC1` (stereo not drawn) gave a melting point of 239 to 241 °C.

In turn, `COCCn1c(C)cc(C(=O)CCl)c1C` came in with a melting point of 87 to 91 °C.

`O=c1[nH]c(S)nn1-c1ccccc1` came in with a melting point of 187 to 189 °C.

Consider `CC(=O)N(Cc1ccc(N)cc1)C(C)C`, for which the melting point was in the range of 110 to 112 °C.

Consider `O=C(O)c1c2c(nc3ccccc13)C(=Cc1cccc(Cl)c1Cl)CCC2`, for which the melting point is 294 to 296 °C.

`Nc1nc(-c2cccc(-n3cnnn3)c2)cs1` came in with a melting point of 184 to 186 °C.

The compound `Cc1cc([N+](=O)[O-])cc(C)c1N` gave a melting point of 161 to 163 °C.

On to `O=Cc1ccccc1OCC(F)(F)F`, for which the melting point was in the range of 51 to 53 °C.

As for `Cn1cc(S(=O)(=O)N2CCOCC2)cc1C(=O)O`, the melting point fell in the range of 245 to 247 °C.

`COc1ccc(C)cc1-c1nn(CC(C)C)cc1C(=O)O`: the melting point was in the range of 181 to 183 °C.

`CN(C)C=C(Br)C=O`: the melting point is 48 to 50 °C.

In turn, `CCOc1ccc(Oc2ccc(S(=O)(=O)Cl)cc2)cc1` showed a melting point of 88 to 90 °C.

With `O=C(O)c1cc(N2CCNC2=O)ccc1F`, the melting point is 319 to 321 °C.

Compound `CC(CCc1ccccc1)NS(=O)(=O)c1ccc(Cl)c(C(=O)O)c1` (stereo not drawn) returned a melting point of 94 to 96 °C.

Compound `O=C(O)c1cc([N+](=O)[O-])ccc1Sc1nnnn1-c1ccccc1` registered a melting point of 218 to 220 °C.

For the compound `Cc1noc(C)c1CSCC(=O)O`, the melting point lay within 92 to 94 °C.

`N#Cc1cccnc1NCc1ccccc1Cl` had a melting point of 111 to 113 °C.

Regarding `CC1CN(C(=O)c2ccc(N)cc2)CC(C)O1` (stereo not drawn), the melting point lay within 174 to 176 °C.

As to `CCc1ccc(-c2cnnc(N)n2)cc1`, the melting point lay in the range of 248 to 250 °C.

In turn, `NC(=O)c1ccccc1I` displayed a melting point of 183 to 185 °C.

The compound `O=C(O)C1CCC(NC(=O)C2CCCC2)CC1` (stereo not drawn) returned a melting point of 161 to 163 °C.

`CNC(=O)c1ccc(C(=O)O)cn1` displayed a melting point of 263 to 265 °C.

With `COCCOc1cn(-c2ccccc2)nc1C(=O)O`, the melting point lay in the range of 103 to 105 °C.

For the compound `Nc1cc([N+](=O)[O-])ccc1Nc1cccc(C(F)(F)F)c1`, the melting point was in the range of 165 to 167 °C.

In the case of `CC(C)N1CCN(C2CCNCC2)CC1`, the melting point was 49 to 51 °C.

Take `Nc1nc2ncccn2n1`: the melting point is 185 to 187 °C.

Regarding `CCC(C)C(O)C(=O)O` (stereo not drawn), the melting point lay within 45 to 47 °C.

The compound `O=C(O)c1csc(Cc2ccc(F)cc2)n1` registered a melting point of 149 to 151 °C.

As to `COC(=O)CCCCCNC(N)=S`, the melting point lay within 84 to 86 °C.

`O=C1Nc2c(Cl)cc(Br)cc2C1=O` showed a melting point of 225 to 227 °C.

For the compound `CCOC(=O)c1ccc(C#N)c(S)n1`, the melting point fell in the range of 169 to 171 °C.

Compound `CCN(CC)c1ccc(C=C[N+](=O)[O-])cc1` gave a melting point of 98 to 100 °C.

In the case of `CC1(C)C2CCC1(CS(=O)(=O)F)C(=O)C2` (stereo not drawn), the melting point was 79 to 81 °C.

Take `CCOC(=O)c1ncoc1-c1scnc1C`: the melting point was 78 to 80 °C.

Compound `COCc1nc(OC)c2c(C)c(C(=O)O)sc2n1` came in with a melting point of 188 to 190 °C.

Consider `NNC(=O)Nc1ccc(Br)cc1`, for which the melting point lay in the range of 236 to 238 °C.

For the compound `Cc1cnc(N)nc1`, the melting point was in the range of 194 to 196 °C.

`O=Cc1sc(=O)[nH]c1Cl` showed a melting point of 199 to 201 °C.

`CN(C)C(=O)CSc1ccccc1C(=O)O` showed a melting point of less than 17 °C.

The compound `Nc1nc(-c2ccc3c(c2)CCC(=O)N3)cs1` displayed a melting point of 248 to 250 °C.

The compound `O=C(O)c1ccccc1OC1CCCCC1` came in with a melting point of 86 to 88 °C.

In the case of `Brc1ccc(-c2nccs2)cc1`, the melting point fell in the range of 45 to 47 °C.

For `O=C(O)CN1C(=O)CNC1=O`, the melting point was 185 to 187 °C.

Consider `O=C(O)C(Oc1ccc(Cl)cc1Br)c1ccccc1` (stereo not drawn), for which the melting point lay in the range of 135 to 137 °C.
